From ChEMBL document CHEMBL6127050, “Simultaneous inhibition of FLT3 and HDAC by novel 6-ethylpyrazine-2-Carboxamide derivatives provides therapeutic advantages in acute myelocytic leukemia” (Eur J Med Chem, 2024)
Active and inactive are the calls of the source. The calls are words filed in the database; no cut-off is given here.

How the values were obtained:
[1] = molecular target: T1, Receptor-type tyrosine-protein kinase FLT3 (Homo sapiens, UniProt P36888); assay: Inhibition of FLT3 (unknown origin) incubated for 40 mins in presence of ATP by kinase-glo plus luminescence assay
T1 sequence (P36888 whole entry): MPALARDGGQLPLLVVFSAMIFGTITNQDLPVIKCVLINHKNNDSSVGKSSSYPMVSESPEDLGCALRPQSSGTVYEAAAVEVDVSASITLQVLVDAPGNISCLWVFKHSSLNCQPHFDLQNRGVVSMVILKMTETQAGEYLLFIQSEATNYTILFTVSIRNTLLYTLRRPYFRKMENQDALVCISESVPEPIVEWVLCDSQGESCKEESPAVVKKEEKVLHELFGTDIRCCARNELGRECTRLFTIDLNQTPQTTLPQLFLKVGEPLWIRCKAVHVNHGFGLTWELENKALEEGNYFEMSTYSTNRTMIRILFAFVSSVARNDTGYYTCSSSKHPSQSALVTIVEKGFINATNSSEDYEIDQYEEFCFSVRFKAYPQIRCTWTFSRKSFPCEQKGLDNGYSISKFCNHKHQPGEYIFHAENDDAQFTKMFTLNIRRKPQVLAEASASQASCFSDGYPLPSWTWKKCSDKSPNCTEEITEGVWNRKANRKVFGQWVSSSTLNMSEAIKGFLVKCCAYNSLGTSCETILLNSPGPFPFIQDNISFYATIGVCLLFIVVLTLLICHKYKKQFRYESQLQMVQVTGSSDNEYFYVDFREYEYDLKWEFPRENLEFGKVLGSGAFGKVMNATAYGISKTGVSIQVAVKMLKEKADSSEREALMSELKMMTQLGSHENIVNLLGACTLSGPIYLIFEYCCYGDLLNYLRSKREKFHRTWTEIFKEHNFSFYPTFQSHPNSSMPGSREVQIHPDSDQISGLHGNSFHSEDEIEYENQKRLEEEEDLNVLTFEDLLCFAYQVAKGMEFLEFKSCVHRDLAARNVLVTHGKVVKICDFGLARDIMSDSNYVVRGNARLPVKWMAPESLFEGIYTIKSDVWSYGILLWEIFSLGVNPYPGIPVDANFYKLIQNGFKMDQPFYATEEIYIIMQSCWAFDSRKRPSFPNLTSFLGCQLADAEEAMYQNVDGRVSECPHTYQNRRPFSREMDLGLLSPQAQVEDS

[2] = test system: MOLM-13; assay: Antiproliferative activity against human MOLM-13 cells incubated for 48 hrs; details: MOLM-13, 48 h
[3] = test system: KG-1; assay: Antiproliferative activity against human KG-1 cells incubated for 48 hrs; details: KG-1, 48 h
[4] = test system: THP-1; assay: Antiproliferative activity against human THP-1 cells incubated for 48 hrs; details: THP-1, 48 h
[5] = test system: K562; assay: Antiproliferative activity against human K562 cells incubated for 48 hrs; details: K562, 48 h
[6] = Cytotoxicity against HEK293T cells incubated for 48 hrs; type: toxicity, cell-based, HEK-293T; details: human
[7] = molecular target: Receptor-type tyrosine-protein kinase FLT3 (Homo sapiens) (UniProt P36888); assay: Inhibition of FLT3 phosphorylation in human MOLM-13 cells at 0.001 to 0.1 microM by Western blot analysis; type: cell-based; details: dose 0.001-0.1 µM
[8] = test system: MOLM-13; assay: Inhibition of STAT5 phosphorylation in human MOLM-13 cells at 0.01 to 0.1 microM by Western blot analysis; type: cell-based; details: dose 0.01-0.1 µM
[9] = test system: MOLM-13; assay: Inhibition of ERK1/2 phosphorylation in human MOLM-13 cells at 0.01 to 0.1 microM by Western blot analysis; type: cell-based; details: dose 0.01-0.1 µM
[10] = test system: MOLM-13; assay: Inhibition of ERK1/2 phosphorylation in human MOLM-13 cells at 0.1 microM by Western blot analysis; type: cell-based
[11] = test system: MOLM-13; assay: Induction of apoptosis in human MOLM-13 cells assessed as viable cells at 0.1 uM incubated for 48 hrs by Annexin V-FITC staining based flow cytometry analysis (reference value: 94.5 %); type: functional; details: Homo sapiens, MOLM-13, read-out: Activity
[12] = test system: MOLM-13; assay: Induction of apoptosis in human MOLM-13 cells assessed as early apoptotic cells at 0.1 uM incubated for 48 hrs by Annexin V-FITC staining based flow cytometry analysis (reference value: 4.07 %); type: functional
[13] = test system: MOLM-13; assay: Induction of apoptosis in human MOLM-13 cells assessed as late apoptotic cells at 0.1 uM incubated for 48 hrs by Annexin V-FITC staining based flow cytometry analysis (reference value: 1.40 %); type: functional
[14] = test system: MOLM-13; assay: Induction of apoptosis in human MOLM-13 cells assessed as necrotic at 0.1 uM incubated for 48 hrs by Annexin V-FITC staining based flow cytometry analysis (reference value: 0.013 %); type: functional
[15] = test system: MOLM-13; assay: Induction of apoptosis in human MOLM-13 cells assessed as caspase-3 activation; type: functional, cell-based; details: dose 0.1 µM
[16] = test system: Mitochondrial membrane; assay: Induction of mitochondrial membrane potential depolarization in human MOLM-13 cells; type: cell membranes; details: dose 0.1 µM
[17] = test system: MOLM-13; assay: Induction of cell cycle arrest in human MOLM-13 cells assessed as accumulation of cells at G0/G1 phase at 0.05 uM measured for 48 hrs by PI/RNase staining based flow cytometric analysis (reference value: 46.24 %); type: functional
[18] = test system: MOLM-13; assay: Induction of cell cycle arrest in human MOLM-13 cells assessed as accumulation of cells at G2M phase at 0.05 uM measured for 48 hrs by PI/RNase staining based flow cytometric analysis (reference value: 10.81%); type: functional
[19] = test system: MOLM-13; assay: Induction of cell cycle arrest in human MOLM-13 cells assessed as accumulation of cells at S-phase at 0.05 uM measured for 48 hrs by PI/RNase staining based flow cytometric analysis (reference value: 42.95%); type: functional
[20] = Metabolic stability in mouse liver microsome incubated upto 120 mins in presence of NADPH by HPLC analysis; type: ADME; details: microsomes, 2 h
[21] = Stability in mouse plasma incubated upto 24 hrs by HPLC analysis; type: ADME, cell-free
[22] = test system: MOLM-13; assay: Antitumor activity against human MOLM-13 cells xenografted BALB/c mouse assessed as reduction in tumor volume at 10 mg/kg, IG qd administered 5 days a week and measured on day 9; type: functional, organism-based; details: time 9.0 day
[23] = test system: MOLM-13; assay: Antitumor activity against human MOLM-13 cells xenografted BALB/c mouse assessed as tumor growth inhibition at 10 mg/kg, IG qd administered 5 days a week and measured on day 9; type: functional; details: MOLM-13, po, 216 h, time 9 day, read-out: TGI
[24] = Toxicity in BALB/c mouse xenografted with human MOLM-13 cells assessed as body weight loss at 10 mg/kg, IG qd administered 5 days a week and measured on day 9; type: organism-based; details: in vivo, po, 216 h, time 9 day
[25] = Toxicity in BALB/c mouse xenografted with human MOLM-13 cells assessed as lung damage at 10 mg/kg, IG qd administered 5 days a week and measured on day 9 by H and E staining based analysis; type: organism-based; details: in vivo, po, 216 h, time 9 day
[26] = Toxicity in BALB/c mouse xenografted with human MOLM-13 cells assessed as kidney damage at 10 mg/kg, IG qd administered 5 days a week and measured on day 9 by H and E staining based analysis; type: organism-based; details: in vivo, po, 216 h, time 9 day

- IC50 [1]: 0.6 nM
- IC50 [2]: 8 nM
- IC50 [4]: 650 nM
- IC50 [5]: 490 nM
- inhibition [7]: Active
- Activity [16]: Dose-Dependent Effect
- Stability [20]: Stable
- Stability [21]: Stable
SMILES: CCc1nc(C(N)=O)c(Nc2ccc(N3CCN(CCCCCCCC(=O)NO)CC3)c(OC)c2)nc1NC1CCOCC1
- IC50 [3]: 660 nM
- IC50 at 48 h [6]: 3050 nM
- inhibition [8]: Active
- inhibition [9]: Active
- inhibition [10]: Active
- viability at 0.1 µM [11]: 39.4%
- Activity [12]: 43.5%
- Activity [13]: 16.6%
- Activity [14]: 0.54%
- Activity [15]: Dose-Dependent Effect
- Activity [17]: 75.85%
- Activity [18]: 4.12%
- Activity [19]: 20.04%
- Activity [22]: Active
- inhibition in vivo at 10 mg/kg [23]: 65.3%
- Activity [24]: Non-Toxic
- Activity [25]: Non-Toxic
- Activity [26]: Non-Toxic
